Assay results published in DBAASP.
Converted amounts (≈) assume the structure as drawn. One block for each molecule: values may come before it.

Experiments:
Assay in all cases: ≥ marks a high value that may be exact or a test limit, other limits are often not marked, values filed in µg/mL are converted to µM
Bacillus subtilis = tested on: Bacillus subtilis
[1] = tested on: Enterococcus faecalis E1478F
[2] = tested on: Staphylococcus aureus RN4220
Staphylococcus aureus = tested on: Staphylococcus aureus
[3] = tested on: Staphylococcus sciuri P254
[4] = tested on: Bacillus subtilis IFO 3037
[5] = tested on: Escherichia coli IFO 14237
[6] = tested on: Staphylococcus aureus IFO 12732
Citrobacter freundii = tested on: Citrobacter freundii
Klebsiella pneumoniae = tested on: Klebsiella pneumoniae
[7] = tested on: Salmonella enterica subsp. enterica serovar Paratyphi A
[8] = tested on: Staphylococcus haemolyticus
[9] = tested on: Bacillus cereus ATCC 10876
[10] = tested on: Enterococcus faecalis ATCC 29212
[11] = tested on: Escherichia coli ATCC 25922
[12] = tested on: Pseudomonas aeruginosa ATCC 27853
[13] = tested on: Salmonella enterica subsp. enterica serovar Typhimurium ATCC 14028
[14] = tested on: Staphylococcus aureus ATCC 6538
[15] = tested on: Streptococcus agalactiae ATCC 27956
[16] = tested on: Streptococcus dysgalactiae subsp. dysgalactiae ATCC 27957
[17] = tested on: Streptococcus equi subsp. zooepidemicus ATCC 43079

MIC (Bacillus subtilis): 2.83 µM (≈ 3.91 µg/mL)
MIC [1]: 2.83 µM (≈ 3.91 µg/mL)
MIC [2]: ≥ 45.2 µM
MIC (Staphylococcus aureus): 45.2 µM (≈ 62.5 µg/mL)
MIC [3]: ≥ 45.2 µM
Structure (SMILES): CC[C@H](C)[C@H](NC(=O)[C@H](CC(C)C)NC(=O)[C@@H]1CCCN1C(=O)[C@H](CC(C)C)NC(=O)[C@@H](N)Cc1ccccc1)C(=O)NCC(=O)NCC(=O)N[C@@H](CC(C)C)C(=O)N[C@@H](CC(C)C)C(=O)N[C@@H](CO)C(=O)N[C@@H](CCCCN)C(=O)N[C@@H](CC(C)C)C(=O)N[C@@H](CC(C)C)C(N)=O [FLPLIGGLLSKLL]

MIC [4]: ≥ 50 µM
MIC [5]: 25 µM (≈ 61.4 µg/mL)
MIC [6]: 25 µM (≈ 61.4 µg/mL)
Structure (SMILES): CC[C@H](C)[C@H](N)C(=O)N[C@H](C(=O)NCC(=O)N[C@@H](CC(C)C)C(=O)N[C@H](C(=O)N[C@@H](CO)C(=O)N[C@@H](CCCCN)C(=O)NCC(=O)N[C@H](C(=O)N[C@H]1CSSC[C@@H](C(=O)N[C@@H](CCCCN)C(=O)N[C@@H](CCCCN)C(=O)N[C@H](C(=O)N[C@@H](CC(C)C)C(=O)N[C@@H](CCCCN)C(=O)N[C@@H](CCC(N)=O)C(N)=O)C(C)C)NC(=O)[C@H](C(C)C)NC(=O)[C@H]([C@@H](C)O)NC(=O)[C@H](CCCCN)NC(=O)[C@H](C(C)C)NC(=O)[C@H](CC(C)C)NC(=O)[C@H](C(C)C)NC1=O)[C@@H](C)O)C(C)C)[C@@H](C)CC [IIGLVSKGTCVLVKTVCKKVLKQ]

MIC (Citrobacter freundii): 2.91 µM (≈ 6 µg/mL)
MIC (Klebsiella pneumoniae): 2.06 µM (≈ 4.24 µg/mL)
MIC [7]: 5.83 µM (≈ 12 µg/mL)
Structure (SMILES): CC(C)C[C@H](NC(=O)[C@H](CCCCN)NC(=O)[C@H](CC(C)C)NC(=O)[C@H](CCCCN)NC(=O)[C@H](CS)NC(=O)[C@H](CC(C)C)NC(=O)[C@H](Cc1c[nH]c2ccccc12)NC(=O)CNC(=O)[C@H](CCCCN)NC(=O)[C@H](CS)NC(=O)[C@@H]1CCCN1C(=O)[C@H](CCCCN)NC(=O)[C@H](CCCN=C(N)N)NC(=O)[C@H](CCCN=C(N)N)NC(=O)[C@H](CO)NC(=O)[C@@H](N)CO)C(=O)N[C@@H](CCCN=C(N)N)C(=O)O [SSRRKPCKGWLCKLKLR]
MIC [8]: 1.46 µM (≈ 3 µg/mL)

MIC [9]: 10.5 µM (≈ 32 µg/mL)
MIC [10]: > 10.5 µM
MIC [11]: 1.64 µM (≈ 5 µg/mL)
MIC [12]: > 10.5 µM
MIC [13]: > 10.5 µM
MIC [14]: > 10.5 µM
MIC [15]: 13.2 µM (≈ 40.2 µg/mL)
MIC [16]: 13.2 µM (≈ 40.2 µg/mL)
MIC [17]: 13.2 µM (≈ 40.2 µg/mL)
Structure (SMILES): CC[C@H](C)[C@H](NC(=O)CNC(=O)[C@H](CCCN=C(N)N)NC(=O)[C@H](CCCCN)NC(=O)[C@H](CO)NC(=O)[C@H](CCCN=C(N)N)NC(=O)[C@H](CCCN=C(N)N)NC(=O)[C@@H](N)C(C)C)C(=O)N[C@@H](CCCCN)C(=O)N[C@H](C(=O)N1CCC[C@H]1C(=O)N[C@@H](CO)C(=O)N[C@@H](Cc1ccccc1)C(=O)N[C@H](C(=O)N[C@@H](CCCCN)C(=O)N[C@@H](CCCCN)C(=O)N[C@H](C(=O)N[C@@H](CC(C)C)C(=O)N[C@@H](CCCCN)C(=O)N[C@@H](CC(=O)O)C(=O)N[C@H](C(=O)N[C@H](C(=O)N[C@@H](CO)C(=O)N[C@@H](CCC(=O)O)C(=O)N[C@@H](CO)C(=O)N[C@H](C(=O)N[C@@H](CO)C(=O)O)[C@@H](C)CC)C(C)C)C(C)C)C(C)C)C(C)C)C(C)C [VRRSKRGIKVPSFVKKVLKDVVSESIS]
